Literature values, collected in article PMC9054096 (RSC Advances, 2020).

Key:
Human galectin-1 = Human galectin-1 (Homo sapiens, UniProt P09382); conditions: read-out: Galectin-1 affinity (Kd); reference compound
Human galectin-9N = Human galectin-9N (Homo sapiens, UniProt O00182); conditions: read-out: Galectin-9N affinity (Kd); reference compound
Human galectin-4C = target: T1, Human galectin-4C (Homo sapiens, UniProt P56470); conditions: read-out: Galectin-4C affinity (Kd); reference compound
T1 sequence (P56470 194-323 limits assumed): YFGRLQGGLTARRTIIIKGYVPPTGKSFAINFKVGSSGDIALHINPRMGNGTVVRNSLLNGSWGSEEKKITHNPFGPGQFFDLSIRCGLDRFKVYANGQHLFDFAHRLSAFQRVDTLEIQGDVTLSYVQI

Human galectin-3 = Human galectin-3 (Homo sapiens, UniProt P17931); conditions: read-out: Galectin-3 affinity (Kd); reference compound
Human galectin-4N = target: T2, Human galectin-4N (Homo sapiens, UniProt P56470); conditions: read-out: Galectin-4N affinity (Kd); reference compound
T2 sequence (P56470 19-150 limits assumed): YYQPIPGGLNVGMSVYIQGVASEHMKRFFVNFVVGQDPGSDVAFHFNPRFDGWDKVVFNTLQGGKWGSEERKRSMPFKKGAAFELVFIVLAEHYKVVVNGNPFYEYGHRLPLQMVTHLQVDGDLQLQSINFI

Human galectin-9C = Human galectin-9C (Homo sapiens, UniProt O00182); conditions: read-out: Galectin-9C affinity (Kd); reference compound
Sequence of Human galectin-9C (O00182 227-355 limits assumed): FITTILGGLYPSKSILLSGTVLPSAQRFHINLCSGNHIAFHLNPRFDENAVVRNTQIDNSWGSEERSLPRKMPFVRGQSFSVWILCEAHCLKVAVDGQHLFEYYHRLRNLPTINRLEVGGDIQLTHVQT

Sequence of Human galectin-9N (O00182 17-148 limits assumed): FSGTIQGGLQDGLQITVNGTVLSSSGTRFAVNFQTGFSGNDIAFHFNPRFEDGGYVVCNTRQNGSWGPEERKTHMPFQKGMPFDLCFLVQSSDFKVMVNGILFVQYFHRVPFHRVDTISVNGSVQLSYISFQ
Sequence of Human galectin-1 (P09382 whole entry): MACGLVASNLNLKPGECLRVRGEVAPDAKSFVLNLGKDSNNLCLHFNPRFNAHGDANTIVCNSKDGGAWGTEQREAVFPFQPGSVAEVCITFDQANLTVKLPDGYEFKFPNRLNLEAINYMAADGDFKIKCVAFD
Sequence of Human galectin-3 (P17931 whole entry): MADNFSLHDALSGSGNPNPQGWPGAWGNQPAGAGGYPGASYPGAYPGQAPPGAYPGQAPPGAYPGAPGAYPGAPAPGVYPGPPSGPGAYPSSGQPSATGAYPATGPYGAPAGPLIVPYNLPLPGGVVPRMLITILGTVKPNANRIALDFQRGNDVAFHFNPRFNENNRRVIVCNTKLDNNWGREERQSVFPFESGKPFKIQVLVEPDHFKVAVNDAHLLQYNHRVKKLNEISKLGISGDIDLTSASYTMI

Kd (Human galectin-1): 48 ± 4.4 µM
Kd (Human galectin-9N): 2.06 ± 0.09 µM
Kd (Human galectin-4C): 43 ± 5.7 µM
Kd (Human galectin-3): 1.27 ± 0.07 µM
Kd (Human galectin-4N): 43 ± 7.1 µM
Kd (Human galectin-9C): 14 ± 1.3 µM
SMILES: O=C(O)c1ccc2ccc(CO[C@@H]3[C@@H](O)[C@@H](Sc4ccc(Cl)c(Cl)c4)O[C@H](CO)[C@@H]3O)nc2c1 [Compound 2, 3,4-dichlorophenyl 3-O-(7-carboxy-quinolin-2-yl-methyl)-1-thio-α-D-galactopyranoside]
